Data published in patent US5763438A, “2-acylaminopropanol compound and medical composition” (Seikagaku Corporation, priority 1994, dated 1998).
Like-named read-outs stand apart in the source and are kept apart here.

Columns and labels:
[1] = Cytotoxicity to uninfected MDCK cells (MTT method); settings: dog, mdck cells
Experimental: (§1) Further, in order to evaluate the cytotoxicities to the MDCK cells of the compounds of the present invention, these compounds at the same concentration were added to cells which were not infected with virus, and the survival rate after carrying out culture in the same manner was examined by the MTT method, which is also shown in Table 1.

[2] = test system: A/PR/8/34 strain influenza virus; test: microbe, parasite or virus in culture; assay type: cell-based, influenza virus A/PR/8/34; settings: for EC50: unidentified influenza virus, PR/8, MDCK, 72 h, read-out: ED50 (concentration at which the cytopathic effect derived from virus was reduced by 50% as compared with a control)
[3] = test system: A/PR/8/34 strain influenza virus; test: microbe, parasite or virus in culture; assay type: cell-based, influenza virus A/PR/8/34; settings: for inhibition at 10 µM: unidentified influenza virus, PR/8, MDCK, 72 h, read-out: Virus growth inhibition (%)
MDCK cells = test: Cytotoxicity to uninfected MDCK cells (MTT method); settings: 10 μM; MDCK cells
Experimental: as §1

B16 melanoma cells = test: Glycolipid biosynthesis-accelerating action in B16 melanoma cells (uptake of 14C-galactose into GSL fraction); assay type: cell-based; settings: for Uptake of 14C-galactose into GSL fraction: 24 hours, control 6,100; for Acceleration of biosynthesis of glycolipids including ganglioside (in words): Table 2
Experimental: B16 melanoma cells derived from neuroectoderm were put into a culture plate with 12 wells in an amount of 2×10^5 cells/well and cultured for 24 hours in Dulbecco modified Eagle's media containing 10% bovine fetal serum. Thereafter, the media were exchanged with the same culture broths containing 2-acylaminopropanol compounds shown in Table 2, and ^14 C-galactose was added thereto. After 24 hours, the media were removed, the cells were washed with 1 ml of a phosphate buffer containing 0.02% EDTA, 1 ml of 0.25 % trypsin was added, and the mixtures were left to stand at 37° C. for 5 minutes. The cells were recovered by using the same culture broths and washed with a phosphate buffer, and then masses of the cells were obtained. 4 ml of methanol and chloroform were added successively to the masses of the cells to extract all GSL, followed by evaporation to dryness. Next, after this all GSL was suspended in 1 ml of water, the suspensions were dialyzed to water for 2 days to completely remove low molecules such as ^14 C-galactose, etc. The radioactivities of the GSL fractions thus obtained were measured by a liquid scintillation counter. A control is a result of carrying out an experiment in the same manner by exchanging the medium with the same amount of a culture broth not containing the compound of the present invention.

virus = settings: Seikagaku vol. 65(8), p. 695 (1993); cited from earlier work
[4] = J. Lipid Res., Vol. 32, 713-722 (1991); cited from earlier work
[5] = 10 μM, MDCK cells, 3 days at 37° C., control 80.0
[6] = Mus musculus, B16, 24 h, 10 μM, control 100, read-out: Glycolipid biosynthesis acceleration (%)

| SMILES | viability at 72 h, 10 µM [1] [%] | Cytopathic effect (%) [2, 5] [%] | EC50 [2] [µM] | inhibition at 10 µM [3] [%] | Uptake of 14C-galactose into GSL fraction (B16 melanoma cells; 10 μM) | activity at 10 µM (B16 melanoma cells; [6]) [%] | Acceleration of biosynthesis of glycolipids including ganglioside (in words) (B16 melanoma cells) | also measured |
| --- | --- | --- | --- | --- | --- | --- | --- | --- |
| CCCCCCCCCC(=O)NC(CN1CCCCC1CO)C(O)c1ccccc1 (mixture of isomers) [drawing 11 (Mixture of isomers), 2-decanoylamino-3-(2-(hydroxymethyl)-piperidino)-1-phenyl-1-propanol] | 80 to 100 | 3.1 | 1.5 | 99.7 | – | – | – | – |
| CCCCCCCCCC(=O)N[C@@H](CN1CCCCC1)[C@H](O)c1ccccc1 (relative stereo) [drawing 8 (DL-erythro), 2-decanoylamino-1-phenyl-3-piperidino-1-propanol] | 80 to 100 | 7.8 | – | 99.6 | – | – | – | – |
| CCCCCCCCCC(=O)N[C@H](CN1CCCCC1)[C@H](O)c1ccccc1 (relative stereo) [drawing 8 (DL-threo), 2-decanoylamino-1-phenyl-3-piperidino-1-propanol] | 80 to 100 | 40.0 | – | 93.9 | – | – | – | – |
| CCCCCCCCCC(=O)N[C@@H](CN1CCC(O)CC1)[C@H](O)c1ccccc1 (relative stereo) [drawing 9 (DL-erythro), 2-decanoylamino-3-(4-hydroxypiperidino)-1-phenyl-1-propanol] | 100 | – | 5 | 100 | – | – | – | Cytotoxicity (in words) (MDCK cells): cytotoxicity at this concentration was not observed at all; Cytopathic effect (%) [2]: 0%; Suppression of growth of influenza virus (in words) [3]: completely suppressed growth of influenza virus |
| CCCCCCCCCC(=O)N[C@H](CN1CCC(O)CC1)[C@H](O)c1ccccc1 (relative stereo) [drawing 9 (DL-threo), 2-decanoylamino-3-(4-hydroxypiperidino)-1-phenyl-1-propanol] | 100 | 14.2 | 5.4 | 87.3 | – | – | – | – |
| CCCCCCCCCC(=O)N[C@@H](CN(CC)CC)[C@H](O)c1ccccc1 (relative stereo) [drawing 10 (DL-erythro), 2-decanoylamino-3-diethylamino-1-phenyl-1-propanol] | 100 | 9.9 | 1.5 | 88.5 | – | – | – | – |
| CCCCCCCCCC(=O)N[C@@H](CN1CCN(C)CC1)[C@@H](O)c1ccccc1 [Compound 2] | – | – | – | – | 10,300 cpm/mg protein | 169 | significantly accelerate biosynthesis of glycolipids including ganglioside | – |
| CCCCCCCCCC(=O)N[C@@H](CN1CCC(O)C1)[C@@H](O)c1ccccc1 (some centres unmarked) [Compound 3] | – | – | – | – | 9,380 cpm/mg protein | 161 | significantly accelerate biosynthesis of glycolipids including ganglioside | – |
| CCCCCCCCCC(=O)N[C@@H](CNC1CCC(O)CC1)[C@@H](O)c1ccccc1 (some centres unmarked) [Compound 4] | – | – | – | – | – | – | significantly accelerate biosynthesis of glycolipids including ganglioside | Uptake of 14C-galactose into GSL fraction (B16 melanoma cells; 5 μM): 9,740 cpm/mg protein; activity at 5 µM (B16 melanoma cells; Mus musculus, B16, 24 h, 5 μM, control 100, read-out: Glycolipid biosynthesis acceleration (%)): 160% |
| CCCCCCCCCC(=O)N[C@H](CN1CCOCC1)[C@H](O)c1ccccc1 [D-threo-PDMP, reference compound] | 60 to 80 | – | – | 97.1 | – | – | – | Cytopathic effect (%) [2]: 44.8% |
| CCCCCCCCCC(=O)NC(CN1CCOCC1)C(O)c1ccccc1 (centres unmarked) [PDMP, 1-phenyl-2-decanoylamino-3-morpholino-1-propanol] | – | – | – | – | – | – | – | Antiviral activity (in words) (virus): has an antiviral activity; Passing a blood-brain barrier (in words) [4]: can pass a blood-brain barrier |
| CCCCCCCCCC(=O)N[C@@H](CN1CCC(O)CC1)[C@H](O)c1ccccc1 [drawing 13 (D-erythro)] | – | – | – | – | 11,470 cpm/mg protein | 188 | significantly accelerate biosynthesis of glycolipids including ganglioside | – |
| CCCCCCCCCC(=O)N[C@@H](CN1CCC(O)CC1)[C@@H](O)c1ccccc1 [drawing 13 (L-threo)] | – | – | – | – | 9,670 cpm/mg protein | 159 | significantly accelerate biosynthesis of glycolipids including ganglioside | – |
